Converted amounts (≈) assume the structure as drawn.
Key:
Experiment in all cases: minimum inhibitory concentration (ETEST)
Neisseria meningitidis = test system: Neisseria meningitidis
Method: (§1)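 Oropharyngeal Neisseria isolates from MSM and employees in Belgium were identified to species by MALDI-TOF MS. MICs of azithromycin, ceftriaxone and ciprofloxacin were determined by ETEST on GC agar after 24 h at 36.5 °C and 5-7% CO2, in mg/L. Values beyond the strip range are reported as >256 (azithromycin) or <0.016 (ceftriaxone); isolates that did not grow are NA.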

Neisseria elongata = settings: population: general population, antibiotic use in previous 6 months: No
Method: as §1

Neisseria gonorrhoeae = settings: isolate id (sample isolate): 19113052_3; population: MSM; antibiotic use in previous 6 months: No
Method: as §1

[1] = isolate id (sample isolate): 19040471_1, population: MSM, antibiotic use in previous 6 months: No
[2] = isolate id (sample isolate): 19040855_1, population: MSM, antibiotic use in previous 6 months: No
[3] = isolate id (sample isolate): 19040874_2, population: MSM, antibiotic use in previous 6 months: No
[4] = isolate id (sample isolate): 19040900_2, population: MSM, antibiotic use in previous 6 months: No
[5] = isolate id (sample isolate): 19042150_2, population: MSM, antibiotic use in previous 6 months: Yes
[6] = isolate id (sample isolate): 19042756_3, population: MSM, antibiotic use in previous 6 months: Yes
[7] = isolate id (sample isolate): 19043201_1, population: MSM, antibiotic use in previous 6 months: No
[8] = isolate id (sample isolate): 19043201_2, population: MSM, antibiotic use in previous 6 months: No
[9] = isolate id (sample isolate): 19043274_1, population: MSM, antibiotic use in previous 6 months: Yes
[10] = isolate id (sample isolate): 19043274_2, population: MSM, antibiotic use in previous 6 months: Yes
[11] = isolate id (sample isolate): 19051853_1, population: MSM, antibiotic use in previous 6 months: No
[12] = isolate id (sample isolate): 19052394_3, population: MSM, antibiotic use in previous 6 months: Yes
[13] = isolate id (sample isolate): 19052434_1, population: MSM, antibiotic use in previous 6 months: Yes
[14] = isolate id (sample isolate): 19060069_1, population: MSM, antibiotic use in previous 6 months: Yes
[15] = isolate id (sample isolate): 19060069_2, population: MSM, antibiotic use in previous 6 months: Yes
[16] = isolate id (sample isolate): 19060089_2, population: MSM, antibiotic use in previous 6 months: Yes
[17] = isolate id (sample isolate): 19061666_1, population: MSM, antibiotic use in previous 6 months: Yes
[18] = isolate id (sample isolate): 19062990_1, population: MSM, antibiotic use in previous 6 months: Yes
[19] = isolate id (sample isolate): 19070019_2, population: MSM, antibiotic use in previous 6 months: No
[20] = isolate id (sample isolate): 19070019_4, population: MSM, antibiotic use in previous 6 months: No
[21] = isolate id (sample isolate): 19070047_1, population: MSM, antibiotic use in previous 6 months: No
[22] = isolate id (sample isolate): 19082621_2, population: MSM, antibiotic use in previous 6 months: No
[23] = isolate id (sample isolate): 19091461_1, population: MSM, antibiotic use in previous 6 months: No
[24] = isolate id (sample isolate): 19091461_2, population: MSM, antibiotic use in previous 6 months: No
[25] = isolate id (sample isolate): 19091973_1, population: MSM, antibiotic use in previous 6 months: No
[26] = isolate id (sample isolate): 19092429_3, population: MSM, antibiotic use in previous 6 months: No
[27] = isolate id (sample isolate): 19103457_1, population: MSM, antibiotic use in previous 6 months: No
[28] = isolate id (sample isolate): 19103457_4, population: MSM, antibiotic use in previous 6 months: No
[29] = isolate id (sample isolate): 19110394_1, population: MSM, antibiotic use in previous 6 months: No
[30] = isolate id (sample isolate): 19113049_3, population: MSM, antibiotic use in previous 6 months: No
[31] = isolate id (sample isolate): 19113049_6, population: MSM, antibiotic use in previous 6 months: No
[32] = isolate id (sample isolate): Co000765_1, population: general population, antibiotic use in previous 6 months: No
[33] = isolate id (sample isolate): Co000790_1, population: general population, antibiotic use in previous 6 months: No
[34] = isolate id (sample isolate): Co000790_3, population: general population, antibiotic use in previous 6 months: No
[35] = isolate id (sample isolate): Co000767_3
[36] = isolate id (sample isolate): Co000780_1
[37] = isolate id (sample isolate): Co000783_4

SMILES	minimum inhibitory concentration (Neisseria meningitidis; [1])	minimum inhibitory concentration (Neisseria meningitidis; [2])	minimum inhibitory concentration (Neisseria meningitidis; [3])	minimum inhibitory concentration (Neisseria meningitidis; [4])	minimum inhibitory concentration (Neisseria meningitidis; [5])	minimum inhibitory concentration (Neisseria meningitidis; [6])	minimum inhibitory concentration (Neisseria meningitidis; [7])	minimum inhibitory concentration (Neisseria meningitidis; [8])	minimum inhibitory concentration (Neisseria meningitidis; [9])	minimum inhibitory concentration (Neisseria meningitidis; [10])	minimum inhibitory concentration (Neisseria meningitidis; [11])	minimum inhibitory concentration (Neisseria meningitidis; [12])	minimum inhibitory concentration (Neisseria meningitidis; [13])	minimum inhibitory concentration (Neisseria meningitidis; [14])	minimum inhibitory concentration (Neisseria meningitidis; [15])	minimum inhibitory concentration (Neisseria meningitidis; [16])	minimum inhibitory concentration (Neisseria meningitidis; [17])	minimum inhibitory concentration (Neisseria meningitidis; [18])	minimum inhibitory concentration (Neisseria meningitidis; [19])	minimum inhibitory concentration (Neisseria meningitidis; [20])	minimum inhibitory concentration (Neisseria meningitidis; [21])	minimum inhibitory concentration (Neisseria meningitidis; [22])	minimum inhibitory concentration (Neisseria meningitidis; [23])	minimum inhibitory concentration (Neisseria meningitidis; [24])	minimum inhibitory concentration (Neisseria meningitidis; [25])	minimum inhibitory concentration (Neisseria meningitidis; [26])	minimum inhibitory concentration (Neisseria meningitidis; [27])	minimum inhibitory concentration (Neisseria meningitidis; [28])	minimum inhibitory concentration (Neisseria meningitidis; [29])	minimum inhibitory concentration (Neisseria meningitidis; [30])	minimum inhibitory concentration (Neisseria meningitidis; [31])	minimum inhibitory concentration (Neisseria meningitidis; [32])	minimum inhibitory concentration (Neisseria meningitidis; [33])	minimum inhibitory concentration (Neisseria meningitidis; [34])	minimum inhibitory concentration (Neisseria elongata; [35])	minimum inhibitory concentration (Neisseria elongata; [36])	minimum inhibitory concentration (Neisseria elongata; [37])	minimum inhibitory concentration (Neisseria gonorrhoeae)
CO/N=C(\C(=O)N[C@@H]1C(=O)N2C(C(=O)O)=C(CSc3nc(=O)c(O)nn3C)CS[C@H]12)c1csc(N)n1 [ceftriaxone]	< 0.016 µg/mL	< 0.016 µg/mL	0.016 µg/mL (≈ 0.0289 µM)	0.023 µg/mL (≈ 0.0415 µM)	< 0.016 µg/mL	< 0.016 µg/mL	< 0.016 µg/mL	< 0.016 µg/mL	< 0.016 µg/mL	0.016 µg/mL (≈ 0.0289 µM)	< 0.016 µg/mL	< 0.016 µg/mL	< 0.016 µg/mL	0.064 µg/mL (≈ 0.115 µM)	0.064 µg/mL (≈ 0.115 µM)	< 0.016 µg/mL	1 µg/mL (≈ 1.8 µM)	< 0.016 µg/mL	0.047 µg/mL (≈ 0.0847 µM)	0.064 µg/mL (≈ 0.115 µM)	< 0.016 µg/mL	< 0.016 µg/mL	< 0.016 µg/mL	< 0.016 µg/mL	< 0.016 µg/mL	< 0.016 µg/mL	< 0.016 µg/mL	< 0.016 µg/mL	< 0.016 µg/mL	< 0.016 µg/mL	< 0.016 µg/mL	< 0.016 µg/mL	< 0.016 µg/mL	< 0.016 µg/mL	0.19 µg/mL (≈ 0.343 µM)	0.047 µg/mL (≈ 0.0847 µM)	0.023 µg/mL (≈ 0.0415 µM)	< 0.016 µg/mL
CC[C@H]1OC(=O)[C@H](C)[C@@H](O[C@H]2C[C@@](C)(OC)[C@@H](O)[C@H](C)O2)[C@H](C)[C@@H](O[C@@H]2O[C@H](C)C[C@H](N(C)C)[C@H]2O)[C@](C)(O)C[C@@H](C)CN(C)[C@H](C)[C@@H](O)[C@]1(C)O [azithromycin]	0.38 µg/mL (≈ 0.507 µM)	0.25 µg/mL (≈ 0.334 µM)	2 µg/mL (≈ 2.67 µM)	0.75 µg/mL (≈ 1 µM)	1.5 µg/mL (≈ 2 µM)	0.38 µg/mL (≈ 0.507 µM)	0.75 µg/mL (≈ 1 µM)	0.38 µg/mL (≈ 0.507 µM)	0.5 µg/mL (≈ 0.668 µM)	0.38 µg/mL (≈ 0.507 µM)	0.38 µg/mL (≈ 0.507 µM)	0.5 µg/mL (≈ 0.668 µM)	0.75 µg/mL (≈ 1 µM)	1 µg/mL (≈ 1.34 µM)	1 µg/mL (≈ 1.34 µM)	4 µg/mL (≈ 5.34 µM)	3 µg/mL (≈ 4.01 µM)	0.5 µg/mL (≈ 0.668 µM)	0.38 µg/mL (≈ 0.507 µM)	0.38 µg/mL (≈ 0.507 µM)	0.5 µg/mL (≈ 0.668 µM)	0.5 µg/mL (≈ 0.668 µM)	6 µg/mL (≈ 8.01 µM)	4 µg/mL (≈ 5.34 µM)	0.5 µg/mL (≈ 0.668 µM)	0.38 µg/mL (≈ 0.507 µM)	0.38 µg/mL (≈ 0.507 µM)	0.25 µg/mL (≈ 0.334 µM)	0.5 µg/mL (≈ 0.668 µM)	0.19 µg/mL (≈ 0.254 µM)	0.25 µg/mL (≈ 0.334 µM)	0.5 µg/mL (≈ 0.668 µM)	2 µg/mL (≈ 2.67 µM)	1 µg/mL (≈ 1.34 µM)	0.5 µg/mL (≈ 0.668 µM)	0.75 µg/mL (≈ 1 µM)	0.38 µg/mL (≈ 0.507 µM)	0.125 µg/mL (≈ 0.167 µM)
O=C(O)c1cn(C2CC2)c2cc(N3CCNCC3)c(F)cc2c1=O [ciprofloxacin]	0.003 µg/mL (≈ 0.00905 µM)	0.004 µg/mL (≈ 0.0121 µM)	0.004 µg/mL (≈ 0.0121 µM)	0.004 µg/mL (≈ 0.0121 µM)	0.002 µg/mL (≈ 0.00604 µM)	0.008 µg/mL (≈ 0.0241 µM)	0.003 µg/mL (≈ 0.00905 µM)	0.003 µg/mL (≈ 0.00905 µM)	0.004 µg/mL (≈ 0.0121 µM)	0.004 µg/mL (≈ 0.0121 µM)	0.004 µg/mL (≈ 0.0121 µM)	0.002 µg/mL (≈ 0.00604 µM)	0.006 µg/mL (≈ 0.0181 µM)	0.006 µg/mL (≈ 0.0181 µM)	0.004 µg/mL (≈ 0.0121 µM)	0.002 µg/mL (≈ 0.00604 µM)	0.064 µg/mL (≈ 0.193 µM)	0.004 µg/mL (≈ 0.0121 µM)	0.003 µg/mL (≈ 0.00905 µM)	0.003 µg/mL (≈ 0.00905 µM)	0.006 µg/mL (≈ 0.0181 µM)	0.004 µg/mL (≈ 0.0121 µM)	0.008 µg/mL (≈ 0.0241 µM)	0.008 µg/mL (≈ 0.0241 µM)	0.003 µg/mL (≈ 0.00905 µM)	0.003 µg/mL (≈ 0.00905 µM)	0.003 µg/mL (≈ 0.00905 µM)	0.003 µg/mL (≈ 0.00905 µM)	0.003 µg/mL (≈ 0.00905 µM)	0.004 µg/mL (≈ 0.0121 µM)	0.003 µg/mL (≈ 0.00905 µM)	0.004 µg/mL (≈ 0.0121 µM)	0.125 µg/mL (≈ 0.377 µM)	0.125 µg/mL (≈ 0.377 µM)	0.004 µg/mL (≈ 0.0121 µM)	0.004 µg/mL (≈ 0.0121 µM)	0.023 µg/mL (≈ 0.0694 µM)	2 µg/mL (≈ 6.04 µM)

From the supplement of paper PMC8741786
